From PMC4457826 (PLoS Pathogens, 2015)

Assays:
FL-USP7 = assay: GST pull-down, USP7-FL; format: binding, human
Experimental: The USP7 binding region is found within ICP0 residues 594–633 and mutagenesis studies have shown that K620 is essential for the interaction. In order to facilitate crystallization and structure determination, we set out to identify a shorter peptide that is capable of binding to USP7. To this end, a series of overlapping GST-ICP0 fusions (591–605, 595–609, 599–613, 603–617, 607–621, 611–625, 615–629, 619–633) were prepared (see Fig 1A for sequence details) and used in GST pull-down assays. […] Overall, our GST pull-down assays identified ICP0 residues between 619 and 629 as important mediators of USP7 binding in agreement with a previous study.
(§1) Next we determined which region of USP7-CTD interacted with the ICP0 615–629 peptide. FL-USP7, USP7-CTD as well as Ubl12, Ubl123, Ubl345 and Ubl45 (Fig 1B) were used as prey in GST pull-down assays using GST-ICP0 615–629. FL-USP7 and USP7-CTD were used as positive controls while GST alone and USP7-NTD were used as negative controls.
(§2) The ICP0, GMPS and UHRF1 WT and mutant peptides were cloned into pGEX-2TK and expressed in E. coli BL21(DE3). GST-ICP0 594–775 was obtained from Roger Everett. The GST-ICP0 or GST-GMPS or GST-UHRF1 or GST-ICP0 594–775 cell pellets from 500 ml of LB broth were re-suspended with PBS and lysed using sonication. The cleared lysates were applied to 500 μl of equilibrated glutathione-sepharose beads and incubated with rocking for 60 min at 4°C. Unbound proteins were removed by washing with PBS. Bound proteins were eluted with 50 mM Tris pH 8.0 and 100 mM NaCL containing 30 mM reduced glutathione. Equal amounts (250 μg) of the various USP7 proteins were incubated with 250 μg of the GST-ICP0 or GST-GMPS or GST-UHRF1 or GST-ICP0 594–775 peptides in 50 mM Tris pH 8.0, 100 mM NaCl, 5 mM DTT, 5% glycerol, 0.1 mM Benzamidine and 0.05 mM PMSF, applied to equilibrated glutathione-sepharose beads and incubated overnight with rocking at 4°C. After extensive washing, bound proteins were eluted with 50 mM Tris pH 8.0 and 100 mM NaCl containing 30 mM reduced glutathione.

USP7-CTD = target: T1, USP7-CTD (Homo sapiens, UniProt Q93009); assay: GST pull-down, USP7-CTD; format: binding
T1 construct: USP7-CTD (535–1102); His tag (inferred from nickel-NTA purification; vector p15TV-L); made in house; host or cells: E. coli BL21(DE3)mgk
T1 sequence (Q93009 535-1102): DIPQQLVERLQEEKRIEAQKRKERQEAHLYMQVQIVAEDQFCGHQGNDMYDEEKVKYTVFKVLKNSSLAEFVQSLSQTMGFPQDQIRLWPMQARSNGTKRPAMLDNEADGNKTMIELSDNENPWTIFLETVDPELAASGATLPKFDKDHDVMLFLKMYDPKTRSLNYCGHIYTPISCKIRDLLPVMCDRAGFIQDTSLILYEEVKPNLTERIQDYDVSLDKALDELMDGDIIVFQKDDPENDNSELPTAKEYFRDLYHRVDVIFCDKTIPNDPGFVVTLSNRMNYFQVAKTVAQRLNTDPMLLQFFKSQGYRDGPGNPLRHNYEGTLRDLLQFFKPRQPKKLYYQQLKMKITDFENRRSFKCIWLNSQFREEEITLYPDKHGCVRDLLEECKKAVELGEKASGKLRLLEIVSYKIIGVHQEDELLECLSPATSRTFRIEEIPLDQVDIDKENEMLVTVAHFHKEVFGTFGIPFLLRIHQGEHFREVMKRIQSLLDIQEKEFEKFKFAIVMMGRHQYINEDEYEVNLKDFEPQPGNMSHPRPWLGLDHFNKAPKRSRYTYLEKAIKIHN
Experimental: (§3) Fragments representing USP7-CTD Ubl domains were prepared using ligation independent cloning with In-Fusion (Clontech) in p15TV-L. The boundaries of the Ubl domain constructs are Ubl12 (535–776), Ubl123 (535–889), Ubl345 (776–1102), Ubl45 (886–1102) and USP7-CTD (535–1102). Plasmids expressing USP7-NTD, USP7, and myc-USP7 WT (pCANmycUSP7) were described previously. USP7 mutants E759A, D762A, D764A and D762A/D764A in Ubl123 were synthesized (Genscript) and inserted into the pET15b plasmid. USP7 mutants E759A, D762A, D764A, D762A/D764A and D762R/D764R in USP7-CTD were prepared by ACGT Corporation. The D762R/D764R mutant was then sub-cloned into wild-type pCANmycUSP7 for co-IP assays. The mammalian ICP0 expression construct pCI-110 ICP0 was obtained from Roger Everett.
as §2

USP7-NTD = assay: GST pull-down, USP7-NTD; format: binding, human; settings: USP7 domain mapping, Fig 1B/1E, listed as GST-ICP0 615–629
Excerpt: as §1, §2

USP7 Ubl12 = target: T2, USP7 Ubl12 (Homo sapiens, UniProt Q93009); assay: GST pull-down, Ubl12; format: binding; settings: USP7 domain mapping, Fig 1B/1E, listed as GST-ICP0 615–629
T2 construct: Ubl12 (535–776); His tag (inferred from nickel-NTA purification; vector p15TV-L); made in house; host or cells: E. coli BL21(DE3)mgk
T2 sequence (Q93009 535-776): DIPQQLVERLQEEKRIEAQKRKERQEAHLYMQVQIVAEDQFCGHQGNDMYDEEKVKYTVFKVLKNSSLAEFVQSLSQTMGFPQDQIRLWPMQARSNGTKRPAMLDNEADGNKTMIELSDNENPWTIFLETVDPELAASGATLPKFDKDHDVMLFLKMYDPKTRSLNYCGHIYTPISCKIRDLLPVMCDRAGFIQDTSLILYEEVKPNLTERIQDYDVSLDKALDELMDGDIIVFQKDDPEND
Experimental: as §3
(§4) The ICP0, GMPS and UHRF1 WT and mutant peptides were cloned into pGEX-2TK and expressed in E. coli BL21(DE3). GST-ICP0 594–775 was obtained from Roger Everett. The GST-ICP0 or GST-GMPS or GST-UHRF1 or GST-ICP0 594–775 cell pellets from 500 ml of LB broth were re-suspended with PBS and lysed using sonication. The cleared lysates were applied to 500 μl of equilibrated glutathione-sepharose beads and incubated with rocking for 60 min at 4°C. Unbound proteins were removed by washing with PBS. Bound proteins were eluted with 50 mM Tris pH 8.0 and 100 mM NaCL containing 30 mM reduced glutathione. […]

USP7 Ubl123 = target: T3, USP7 Ubl123 (Homo sapiens, UniProt Q93009); assay: GST pull-down, Ubl123; format: binding; settings: USP7 domain mapping, Fig 1B/1E, listed as GST-ICP0 615–629
T3 construct: Ubl123 (535–889); His tag (inferred from nickel-NTA purification; vector p15TV-L); made in house; host or cells: E. coli BL21(DE3)mgk
T3 sequence (Q93009 535-889): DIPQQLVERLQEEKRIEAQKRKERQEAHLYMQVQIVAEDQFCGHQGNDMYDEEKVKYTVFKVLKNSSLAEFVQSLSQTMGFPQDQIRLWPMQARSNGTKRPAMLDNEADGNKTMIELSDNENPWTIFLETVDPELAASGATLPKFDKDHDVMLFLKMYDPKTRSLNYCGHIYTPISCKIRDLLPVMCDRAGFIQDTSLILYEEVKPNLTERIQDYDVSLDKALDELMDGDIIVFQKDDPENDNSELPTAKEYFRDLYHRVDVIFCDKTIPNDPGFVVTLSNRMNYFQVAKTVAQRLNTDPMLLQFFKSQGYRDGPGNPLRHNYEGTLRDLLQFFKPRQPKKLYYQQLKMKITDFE
Experimental: as §3, §2

USP7 Ubl345 = assay: GST pull-down, Ubl345; format: binding, human; settings: USP7 domain mapping, Fig 1B/1E, listed as GST-ICP0 615–629
Experimental: as §3, §4

USP7 Ubl45 = assay: GST pull-down, Ubl45; format: binding, human; settings: USP7 domain mapping, Fig 1B/1E, listed as GST-ICP0 615–629
Experimental: as §3, §4

Ubl123 mutant E759A = target: T4, Ubl123 mutant E759A (Homo sapiens, UniProt Q93009, E759A); assay: GST pull-down, Ubl123 E759A; format: binding; settings: Fig 3F
T4 construct: Ubl123 (535–889); (vector pET15b); made in house; host or cells: E. coli BL21(DE3)mgk
T4 sequence (Q93009 535-889 E759A): as the sequence (Q93009 535-889) above, with E225A counted along it
Experimental: as §3, §4

Ubl123 mutant D762A = target: T5, Ubl123 mutant D762A (Homo sapiens, UniProt Q93009, D762A); assay: GST pull-down, Ubl123 D762A; format: binding; settings: Fig 3F
T5 construct: Ubl123 (535–889); (vector pET15b); made in house; host or cells: E. coli BL21(DE3)mgk
T5 sequence (Q93009 535-889 D762A): as the sequence (Q93009 535-889) above, with D228A counted along it
Experimental: as §3, §4

Ubl123 mutant D764A = target: T6, Ubl123 mutant D764A (Homo sapiens, UniProt Q93009, D764A); assay: GST pull-down, Ubl123 D764A; format: binding; settings: Fig 3F
T6 construct: Ubl123 (535–889); (vector pET15b); made in house; host or cells: E. coli BL21(DE3)mgk
T6 sequence (Q93009 535-889 D764A): as the sequence (Q93009 535-889) above, with D230A counted along it
Experimental: as §3, §4

[1] = target: T7, Ubl123 mutant D762A/D764A (Homo sapiens, UniProt Q93009, D762A/D764A); assay: GST pull-down, Ubl123 D762A/D764A; format: binding; settings: Fig 3F
T7 construct: Ubl123 (535–889); (vector pET15b); made in house; host or cells: E. coli BL21(DE3)mgk
T7 sequence (Q93009 535-889 D762A/D764A): as the sequence (Q93009 535-889) above, with D228A, D230A counted along it
Experimental: as §3, §4

USP7-CTD mutant E759A = assay: GST pull-down, USP7-CTD E759A; format: binding, human
Experimental: as §3, §4

USP7-CTD mutant D762A = assay: GST pull-down, USP7-CTD D762A; format: binding, human
Experimental: as §3, §2

USP7-CTD mutant D764A = assay: GST pull-down, USP7-CTD D764A; format: binding, human
Experimental: as §3, §4

[2] = test system: USP7-CTD mutant D762A/D764A; assay: GST pull-down, USP7-CTD D762A/D764A; format: binding, human
Experimental: as §3, §2

[3] = test system: USP7-CTD mutant D762R/D764R; assay: GST pull-down, USP7-CTD D762R/D764R; format: binding, human
Experimental: as §3, §4

[4] = GST pull-down, USP7 domain mapping, Fig 1B/1E, listed as GST-ICP0 615–629

Sequence	Interaction with USP7-FL (overlapping GST-ICP0 peptides) (FL-USP7; GST fusions 250 μg + USP7 250 μg, 50 mM Tris pH 8.0, 100 mM NaCl, 5 mM DTT, 5% glycerol, overnight 4°C, Coomassie stained gel, Fig 1A/1C, symbols not defined)	Interaction with ICP0 615-629: USP7-FL (FL-USP7; [4])	Interaction with USP7-CTD (overlapping GST-ICP0 peptides) (USP7-CTD; GST fusions 250 μg + USP7-CTD 250 μg, 50 mM Tris pH 8.0, 100 mM NaCl, 5 mM DTT, 5% glycerol, overnight 4°C, Coomassie stained gel, Fig 1A/1D, symbols not defined)	Interaction with ICP0 615-629: USP7-CTD (USP7-CTD; [4])	Interaction with ICP0 615-629: USP7-NTD (USP7-NTD)	Interaction with ICP0 615-629: Ubl12 (USP7 Ubl12)	Interaction with ICP0 615-629: Ubl123 (USP7 Ubl123)	Interaction with ICP0 615-629: Ubl345 (USP7 Ubl345)	Interaction with ICP0 615-629: Ubl45 (USP7 Ubl45)	Binding to Ubl123 mutant E759A (Ubl123 mutant E759A)	Binding to Ubl123 mutant D762A (Ubl123 mutant D762A)	Binding to Ubl123 mutant D764A (Ubl123 mutant D764A)	Binding to Ubl123 mutant D762A/D764A [1]	Binding to USP7-CTD mutant E759A (USP7-CTD mutant E759A)	Binding to USP7-CTD mutant D762A (USP7-CTD mutant D762A)	Binding to USP7-CTD mutant D764A (USP7-CTD mutant D764A)	Binding to USP7-CTD mutant D762A/D764A [2]	Binding to USP7-CTD mutant D762R/D764R [3]
PRGPRKCARKTRHAE [ICP0 615–629, GST-ICP0 fusion of ICP0 residues 615–629]	strongest interaction	FL-USP7 as well as USP7-CTD but not USP7-NTD or GST alone interacted	strongest interaction	FL-USP7 as well as USP7-CTD but not USP7-NTD or GST alone interacted	not USP7-NTD	interacted	interacted	no interaction	no interaction	Binding was abolished	Binding was abolished	Binding was abolished	Binding was abolished	Binding was abolished	Binding was abolished	Binding was abolished	Binding was abolished	
TGKGKWKR [UHRF1 peptide, UHRF1 peptide with KxxxK motif, residues 642–649]															disrupted		disrupted	disrupted
